Reference: patent US20230416247A1, “DRUG-LIKE MOLECULES AND METHODS FOR THE THERAPEUTIC TARGETING OF MICRORNA-21” (University of Washington, priority 2020, published 2023)

System: mature miR-21 in HeLa cells
Experiment: qRT-PCR of mature miR-21 in HeLa cells
Type: cell-based
Experimental: FIGS. 12A and 12B compare levels of mature miR-21 in HeLa cells, as measured by standard qRT-PCR after 5 days of incubation in the presence of palbociclib and compounds −0045 (sm1), −0050 (sm3) and −0052 (sm5) (FIG. 12A); and levels of mature miR-21 in HeLa cells were measured by qRT-PCR after 4 days of incubation in the presence of palbociclib (a control) and compounds −0045 (sm1), −0050 (sm3) and −0052 (sm5) (FIG. 12B), normalized to miR-21 levels in the absence of any compound. […] The two panels represent independent duplicates of the same experiment.
HeLa cells have relatively high levels of miR-21, and this cell line was used to evaluate whether addition of the molecules would decrease levels of mature miR-21, as expected for inhibition of miR-21 processing. […] In contrast, compounds −0045, −50 and −52, induce an approximately 20% percent decline in levels of mature miR-21 (FIGS. 12A and 12B; the comparison of FIG. 12A and FIG. 12B provides an indication in the uncertainty of the data). miR-21 is very long lived, with a lifetime of approximately 5 days. […] Similar results were obtained at higher numbers of cells/plate (200 k vs at the start of the experiment), but the experiment could not be extended beyond 2 days because of the very high cell density reached. The observed trends were nonetheless in agreement with the experiments conducted at lower cell density.

**Q.** Which “increase in levels of miR-21” value (days 4 and 5 of incubation, 20 k vs 200 k cells/plate, normalized to no compound) does the source give for `CC(=O)c1c(C)c2cnc(Nc3ccc(N4CCNCC4)cn3)nc2n(C2CCCC2)c1=O` [Palbociclib, reference compound] here?
**A.** Its value is 10-20%.

**Q.** Which “decline in levels of mature miR-21” value (days 4 and 5 of incubation, normalized to no compound) does the source give for `O=c1[nH]c(Nc2ccc(N3CCNCC3)cn2)nc2ccncc12` [−0050] here?
**A.** Its value is “approximately 20%”.

**Q.** What about the “reduction of all newly synthesized miR-21” value (worked out from the 20% decrease and miR-21 lifetime of approximately 5 days) of the same molecule?
**A.** Its value is “about 60%”.
